In patent publication US20110009376A1, “PROPHYLACTIC OR THERAPEUTIC AGENT FOR EYE DISEASE ACCOMPANIED BY OPTIC NERVE DISORDER” (priority 2008, published 2011):

How the values were obtained:
[1] = system: GCLM; test: Induction of gene expression in rat fetus-derived retinal neuron culture system (quantitative PCR); assay type: cell-based; conditions: mean ± standard deviation, normalized to GAPDH
Procedure: (§1) Test 1: Study of Ability to Induce Expression of Genes of Phase II Xenobiotic Metabolizing Enzyme and Antioxidant Enzyme using Rat Fetus-Derived Retinal Neuron Culture System
(§2) The ability of Ebselen to induce the expression of genes of a phase II xenobiotic metabolizing enzyme and an antioxidant enzyme was evaluated using a rat fetus-derived retinal neuron culture system (Brain Res. 2003; 967: 257-66) Incidentally, the rat fetus-derived retinal neuron culture system has been extensively used as a technique for culturing retinal neurons and has been widely used as one of the tools for studying optic nerve diseases such as glaucoma.
(§3) Retinal neurons of a rat fetus (Slc:Wistar/ST, 18 days old) were isolated and seeded onto a polyethyleneimine-coated plastic coverslip. Then, the cells were cultured for 3 days in an Eagle's minimum essential medium supplemented with 10% fetal bovine serum. Thereafter, a solvent (0.1% ethanol) or Ebselen was added thereto to give a final concentration of 25 μM, and the cells were incubated in the culture medium. Incidentally, the culture was performed under the conditions of 37° C. and 5% CO2. The culture medium was removed at each time point of 4, 8, or 12 hours after initiation of incubation. A mixed solution was prepared by adding 1% (v/v) β-mercaptoethanol (manufactured by BioRad, Cat No. 161-0710) to Buffer RLT attached to RNeasy Mini Kit (250) (manufactured by QIAGEN, Cat No. 74106), and the retinal neurons on the plastic coverslip were lysed with the thus prepared mixed solution. The total RNA was extracted from the resulting cell lysate according to the protocol attached to the RNeasy Mini Kit (250), and cDNA was synthesized using ExScript™ RT reagent Kit (manufactured by TAKARA, Cat No. RR035B). According to the protocol attached to SYBR Premix Ex Taq (Perfect Real Time) (manufactured by TAKARA, Cat No. RR041B), SYBR Premix Ex Taq (Perfect Real Time), ROX Reference Dye, the synthesized cDNA, and each primer pair of glyceraldehyde-3-phosphate dehydrogenase (hereinafter also referred to as “GAPDH”), GCLM, TRxR, HO-1, or NQO-1 (manufactured by Nihon Gene Research Laboratories Inc.) were mixed, and PCR reaction was performed using a quantitative PCR system (manufactured by Applied Biosystems, system name: ABI PRISM 7000), and the expression level of each of the genes of GAPDH, GCLM, TRxR, HO-1, and NQO-1 was measured. From the obtained results, a relative expression level of each target gene was calculated by normalizing the expression level of each target gene with the expression level of GAPDH which is a housekeeping gene according to the equation 1. Further, an induction ratio (%) of each target gene to the vehicle group was obtained by dividing the value of the expression level of each gene in the 25 μM Ebselen group by a mean value of the expression level of the same gene in the vehicle group according to the equation 2. Each data was shown as the mean±standard deviation of three independent experiments.
(§4) Relative expression level of each target gene=(Expression level of each gene/Expression level of GAPDH) [Equation 1]
(§5) Induction ratio of each target gene to vehicle group (%)=(Expression level of each gene in 25 μM Ebselen group/Expression level of each gene in vehicle group) [Equation 2]

[2] = system: HO-1; test: as above; assay type: cell-based; conditions: mean ± standard deviation, normalized to GAPDH
Procedure: as §1, §2, §3, §4, §5

[3] = system: NQO-1; test: as above; assay type: cell-based; conditions: mean ± standard deviation, normalized to GAPDH
Procedure: as §1, §2, §3, §4, §5

[4] = system: TRxR; test: as above; assay type: cell-based; conditions: mean ± standard deviation, normalized to GAPDH
Procedure: as §1, §2, §3, §4, §5

[5] = system: cells in the retinal ganglion cell layer; test: Rat model of ischemia/reperfusion-induced retinal damage; assay type: in vivo; conditions: oral, twice daily for 12 days, eyes taken 7 days after ischemia/reperfusion
Procedure: The usefulness of Ebselen against retinal ischemia/reperfusion damage was evaluated using a rat model of ischemia/reperfusion-induced retinal damage (Ophthalmologica. 1991; 203: 138-147) as a model for studying an effect on retinal damage induced by ischemia/reperfusion.
A 1% (w/v) atropine sulfate hydrate ophthalmic solution (manufactured by Nihon Tenganyaku, Co. Ltd., product name: Nitten ATROPINE Ophthalmic Solution 1%) was instilled into the eye of a rat (Slc:SD, male, about 7 weeks old) to cause mydriasis, and general anesthesia was induced by allowing the rat to inhale a gas obtained by vaporizing 3% (v/v) halothane (manufactured by Takeda Pharmaceutical Company Limited., product name: Fluothane) by a mixed gas (2 L/min) of 100% (v/v) oxygen (0.5 L/min) and 100% (v/v) nitrous oxide (1.5 L/min), and the anesthesia was maintained under conditions of 1% (v/v) halothane. […] From the 8 sections, 3 sections were arbitrarily selected, and with respect to the selected sections, a photograph of the retina in the range of from 1 to 1.5 mm on the left or right side from the optic nerve head was taken, and the number of cells in the retinal ganglion cell layer was measured. […]

[6] = system: photoreceptor cells (visual cells); conditions: ischemia/reperfusion rabbit model; cited from earlier work
[7] = system: chick retinal cells; conditions: chick retinal cells in an embryonic stage; cited from earlier work

## O=c1c2ccccc2[se]n1-c1ccccc1 [Ebselen, 2-phenyl-1,2-benzisoselenazol-3(2H)-one]
[1]; after 4 hours
  Induction ratio of expression of GCLM gene in 25 μM Ebselen group to vehicle group: 198 ± 18%
[1]; after 8 hours
  Induction ratio of expression of GCLM gene in 25 μM Ebselen group to vehicle group: 194 ± 14%
[1]; after 12 hours
  Induction ratio of expression of GCLM gene in 25 μM Ebselen group to vehicle group: 172 ± 13%
[2]; after 4 hours
  Induction ratio of expression of HO-1 gene in 25 μM Ebselen group to vehicle group: 1263 ± 365%
[2]; after 8 hours
  Induction ratio of expression of HO-1 gene in 25 μM Ebselen group to vehicle group: 1458 ± 307%
[2]; after 12 hours
  Induction ratio of expression of HO-1 gene in 25 μM Ebselen group to vehicle group: 1311 ± 237%
[3]; after 4 hours
  Induction ratio of expression of NQO-1 gene in 25 μM Ebselen group to vehicle group: 450 ± 74%
[3]; after 8 hours
  Induction ratio of expression of NQO-1 gene in 25 μM Ebselen group to vehicle group: 937 ± 183%
[3]; after 12 hours
  Induction ratio of expression of NQO-1 gene in 25 μM Ebselen group to vehicle group: 1266 ± 212%
[4]; after 4 hours
  Induction ratio of expression of TRxR gene in 25 μM Ebselen group to vehicle group: 225 ± 11%
[4]; after 8 hours
  Induction ratio of expression of TRxR gene in 25 μM Ebselen group to vehicle group: 193 ± 13%
[4]; after 12 hours
  Induction ratio of expression of TRxR gene in 25 μM Ebselen group to vehicle group: 301 ± 26%
[5]; 3 mg/kg/day
  Suppression ratio against decrease in the number of cells in retinal ganglion cell layer: 38.0%
[5]; 30 mg/kg/day
  Suppression ratio against decrease in the number of cells in retinal ganglion cell layer: 59.7%
[6]
  Effect on b-wave of the electroretinogram (ERG) after ischemia/reperfusion: attenuated the reduction of the b-wave
[7]
  Effect on cell death caused by glutamate excitotoxicity: inhibited the cell death caused by glutamate excitotoxicity
